# Values quoted from earlier work, collected in patent US6689905B2, “Stereoisomers of 3-aminotricyclo[2.2.1.0(2.6)]heptane-1,3-dicarboxylic acid” (Wyeth, priority 2001, dated 2004).
# Target: type 2 mGlu receptors (Homo sapiens, UniProt Q14416)
# Details: literature description
# Chain of type 2 mGlu receptors (Q14416 19-872): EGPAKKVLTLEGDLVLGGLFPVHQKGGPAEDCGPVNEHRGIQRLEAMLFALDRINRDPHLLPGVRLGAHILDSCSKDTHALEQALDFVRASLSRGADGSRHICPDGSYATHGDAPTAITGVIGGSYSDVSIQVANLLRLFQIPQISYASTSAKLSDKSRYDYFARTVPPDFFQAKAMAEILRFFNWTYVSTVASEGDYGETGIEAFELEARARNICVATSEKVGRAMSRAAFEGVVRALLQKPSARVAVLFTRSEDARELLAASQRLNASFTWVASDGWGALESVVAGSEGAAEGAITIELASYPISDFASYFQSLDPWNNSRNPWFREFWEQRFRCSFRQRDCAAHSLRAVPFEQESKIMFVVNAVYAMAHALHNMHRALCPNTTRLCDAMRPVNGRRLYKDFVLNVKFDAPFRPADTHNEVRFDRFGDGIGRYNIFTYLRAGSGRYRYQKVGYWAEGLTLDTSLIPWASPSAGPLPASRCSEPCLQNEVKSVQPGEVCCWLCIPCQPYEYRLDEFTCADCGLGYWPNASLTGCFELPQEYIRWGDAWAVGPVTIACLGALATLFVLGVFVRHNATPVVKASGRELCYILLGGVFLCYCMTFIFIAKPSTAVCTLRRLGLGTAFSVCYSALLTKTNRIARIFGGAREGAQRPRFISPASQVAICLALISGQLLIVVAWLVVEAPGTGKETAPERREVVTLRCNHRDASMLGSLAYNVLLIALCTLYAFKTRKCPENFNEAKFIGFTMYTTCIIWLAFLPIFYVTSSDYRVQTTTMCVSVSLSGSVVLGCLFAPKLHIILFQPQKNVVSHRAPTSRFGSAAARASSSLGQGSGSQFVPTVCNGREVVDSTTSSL
compound,measurement,value
"NC1(C(=O)O)CC2CCC1C2C(=O)O (stereo not drawn) [ABHD-I, 2-endo-aminobicyclo[2.2.1]heptane-2-exo-7-anti-dicarboxylic acid]",functional character at type 2 mGlu receptors,agonists
